Where two headings read alike, the source gives them in different places.
What was measured:
A673 cells = assay: Cytotoxicity in A673 cells (Cell Titer Glo viability); format: cell-based; details: for Ratio of Biochemical Potency:Cellular Potency: CDK12 IC50 / A673 IC50; for IC50: Homo sapiens
Method: Cells were plated in 96-well plates at a density of […] viable cells per well in 200 μL fully supplemented growth medium (DMEM+10% heat inactivated foetal bovine serum) and incubated for 24 hours in standard tissue culture conditions. Compounds, including MLN4924, were solubilised in DMSO and then diluted in fully supplemented growth medium at 2× their final assay concentration such that the final DMSO concentration was 0.1%. Growth medium in the assay plates was replaced with 50 μL of growth medium containing 2×MLN4924 (final assay concentration: 30 nM, where tested) or vehicle only and 50 μL of growth medium containing a 2× compound concentration series or vehicle only such that each compound was at 1× final assay concentration in 100 μL.
Cells were then incubated for 72 hours in standard tissue culture conditions before viability was assessed using 50 μL Cell Titer Glo reagent (Promega) per well and luminescence measured on an EnVision plate reader. Data were normalised to vehicle control (100%) and cells treated with 0.1% Triton x-100 for 1 hour before viability measurement (0%; full cell kill). […] Viability curves generated in the presence of MLN4924 were normalised and fixed to controls treated with MLN4924.

Human CDK12 wt/CycK = Human CDK12 wt/CycK (Homo sapiens (Human), UniProt Q9NYV4); assay: Radiometric protein kinase assay (33PanQinase Activity Assay), CDK12; format: biochemical; details: for CDK7/CDK12: ratio of CDK7 IC50 to CDK12 IC50, greater than 1 indicates selectivity for CDK12
Sequence of Human CDK12 wt/CycK (Q9NYV4 whole entry): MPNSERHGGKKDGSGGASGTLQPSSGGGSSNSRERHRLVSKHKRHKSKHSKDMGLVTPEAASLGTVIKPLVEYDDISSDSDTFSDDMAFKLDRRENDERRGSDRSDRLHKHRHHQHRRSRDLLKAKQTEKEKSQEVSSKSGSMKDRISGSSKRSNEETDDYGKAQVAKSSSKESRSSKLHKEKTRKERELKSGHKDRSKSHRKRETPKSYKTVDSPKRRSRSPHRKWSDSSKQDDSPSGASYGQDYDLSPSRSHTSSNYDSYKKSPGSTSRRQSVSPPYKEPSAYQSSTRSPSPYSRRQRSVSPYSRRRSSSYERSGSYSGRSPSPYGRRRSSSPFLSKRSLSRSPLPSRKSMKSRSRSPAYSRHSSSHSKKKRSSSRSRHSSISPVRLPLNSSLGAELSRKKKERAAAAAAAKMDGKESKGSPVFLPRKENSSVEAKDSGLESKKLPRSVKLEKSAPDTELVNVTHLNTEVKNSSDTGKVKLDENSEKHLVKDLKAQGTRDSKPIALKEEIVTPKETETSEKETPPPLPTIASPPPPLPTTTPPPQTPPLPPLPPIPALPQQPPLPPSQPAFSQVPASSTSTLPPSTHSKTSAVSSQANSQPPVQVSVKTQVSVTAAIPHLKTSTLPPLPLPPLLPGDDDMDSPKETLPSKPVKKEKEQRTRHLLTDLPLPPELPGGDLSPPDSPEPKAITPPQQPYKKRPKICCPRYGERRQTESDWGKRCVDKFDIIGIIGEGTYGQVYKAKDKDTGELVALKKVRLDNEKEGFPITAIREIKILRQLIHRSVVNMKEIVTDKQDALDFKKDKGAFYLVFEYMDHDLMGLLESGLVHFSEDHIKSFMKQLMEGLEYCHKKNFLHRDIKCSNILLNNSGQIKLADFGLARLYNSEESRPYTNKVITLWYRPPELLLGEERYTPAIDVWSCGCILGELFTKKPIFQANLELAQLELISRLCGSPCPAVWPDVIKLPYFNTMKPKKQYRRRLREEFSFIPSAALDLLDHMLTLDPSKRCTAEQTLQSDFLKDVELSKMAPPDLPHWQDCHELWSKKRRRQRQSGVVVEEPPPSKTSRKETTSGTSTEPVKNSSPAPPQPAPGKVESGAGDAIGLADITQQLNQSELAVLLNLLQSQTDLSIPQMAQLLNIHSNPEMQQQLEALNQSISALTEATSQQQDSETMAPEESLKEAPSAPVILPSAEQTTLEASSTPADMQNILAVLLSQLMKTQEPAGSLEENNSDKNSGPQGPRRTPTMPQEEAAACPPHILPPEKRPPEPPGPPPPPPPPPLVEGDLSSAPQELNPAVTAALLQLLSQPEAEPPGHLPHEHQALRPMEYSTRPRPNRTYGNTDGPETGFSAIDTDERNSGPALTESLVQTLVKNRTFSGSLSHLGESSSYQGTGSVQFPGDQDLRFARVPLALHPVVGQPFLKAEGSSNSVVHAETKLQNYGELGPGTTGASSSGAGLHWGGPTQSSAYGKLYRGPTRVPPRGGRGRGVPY
Sequence of Human CDK12 wt/CycK (O75909 whole entry partner): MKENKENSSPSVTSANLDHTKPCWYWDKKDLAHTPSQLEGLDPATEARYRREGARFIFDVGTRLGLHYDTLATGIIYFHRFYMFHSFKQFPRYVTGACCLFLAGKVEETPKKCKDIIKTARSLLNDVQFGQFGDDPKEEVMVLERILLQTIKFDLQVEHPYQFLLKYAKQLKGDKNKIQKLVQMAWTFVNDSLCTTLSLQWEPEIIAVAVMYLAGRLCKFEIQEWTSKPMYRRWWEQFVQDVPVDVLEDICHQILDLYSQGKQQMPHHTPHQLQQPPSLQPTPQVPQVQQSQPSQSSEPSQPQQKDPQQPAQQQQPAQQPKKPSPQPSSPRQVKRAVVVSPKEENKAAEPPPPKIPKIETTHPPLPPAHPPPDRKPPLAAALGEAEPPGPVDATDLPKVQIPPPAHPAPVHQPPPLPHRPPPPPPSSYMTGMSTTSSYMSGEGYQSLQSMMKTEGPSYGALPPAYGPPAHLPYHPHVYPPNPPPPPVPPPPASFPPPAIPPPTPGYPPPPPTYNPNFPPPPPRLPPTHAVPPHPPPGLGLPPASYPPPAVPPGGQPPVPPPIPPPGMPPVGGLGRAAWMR
Method: (§1) A radiometric protein kinase assay (^33PanQinase® Activity Assay) was used for measuring the kinase activity of the two protein kinases (CDK12/CDK7). All kinase assays were performed in 96-well FlashPlates™ from PerkinElmer (Boston, MA, USA) in a 50 μL reaction volume.
(§2) The reaction cocktail was pipetted in four steps in the following order: • 20 μL of assay buffer (standard buffer) • 5 μL of ATP solution (in H2O) • 5 μL of test compound (in 10% DMSO) • 10 μL of substrate/10 μL of enzyme solution (premixed)
(§3) The reaction mixture was incubated at 30° C. for 60 min and then stopped by the addition of 2% (v/v) H3PO4. Plates were aspirated and washed two times with 200 μL 0.9% (w/v) NaCl. Incorporation of ^33Pi was determined with a microplate scintillation count (Microbeta, Wallac).
The fitting method used was a least-squares fit.

Human CDK7/CycH/MAT1 = Human CDK7/CycH/MAT1 (Homo sapiens (Human), UniProt P50613); assay: Radiometric protein kinase assay (33PanQinase Activity Assay), CDK7; format: biochemical; details: ATP 3 μM
Sequence of Human CDK7/CycH/MAT1 (P50613 whole entry): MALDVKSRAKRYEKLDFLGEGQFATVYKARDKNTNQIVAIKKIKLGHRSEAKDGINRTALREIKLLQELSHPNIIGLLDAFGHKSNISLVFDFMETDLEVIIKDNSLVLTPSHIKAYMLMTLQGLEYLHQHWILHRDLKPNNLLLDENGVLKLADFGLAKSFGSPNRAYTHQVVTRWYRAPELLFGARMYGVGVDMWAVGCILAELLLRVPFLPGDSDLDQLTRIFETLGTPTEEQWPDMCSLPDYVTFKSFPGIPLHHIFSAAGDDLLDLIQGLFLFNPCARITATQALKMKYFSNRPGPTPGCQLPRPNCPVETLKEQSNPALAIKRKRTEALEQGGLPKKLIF
Sequence of Human CDK7/CycH/MAT1 (P51946 whole entry partner): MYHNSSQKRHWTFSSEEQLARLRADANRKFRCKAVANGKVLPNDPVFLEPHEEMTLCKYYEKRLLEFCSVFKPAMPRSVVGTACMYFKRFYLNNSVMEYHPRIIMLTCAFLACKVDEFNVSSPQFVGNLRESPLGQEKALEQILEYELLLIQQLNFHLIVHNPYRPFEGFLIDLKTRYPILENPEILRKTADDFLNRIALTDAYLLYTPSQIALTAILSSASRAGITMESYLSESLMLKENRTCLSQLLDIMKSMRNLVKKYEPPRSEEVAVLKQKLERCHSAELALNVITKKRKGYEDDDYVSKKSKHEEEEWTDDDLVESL
Sequence of Human CDK7/CycH/MAT1 (P51948 whole entry partner): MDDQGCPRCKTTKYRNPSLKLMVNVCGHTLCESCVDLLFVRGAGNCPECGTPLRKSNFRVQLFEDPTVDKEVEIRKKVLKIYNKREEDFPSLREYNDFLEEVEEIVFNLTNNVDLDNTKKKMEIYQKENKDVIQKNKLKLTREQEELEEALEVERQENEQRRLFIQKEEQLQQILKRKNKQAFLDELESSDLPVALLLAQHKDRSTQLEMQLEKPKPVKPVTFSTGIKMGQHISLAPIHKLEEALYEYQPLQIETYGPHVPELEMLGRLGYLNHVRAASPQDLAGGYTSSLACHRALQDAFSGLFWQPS
Method: Additionally for the CDK7 assay: • Human CDK7/CycH/MAT1 (ProQinase, 0366-0360-4—Lot 2). • RBER-CHKtide (ProQinase, 0581-0000-5—Lot 106).
as §1, §2
For the CDK7 assay, a reaction mixture (50 μL) containing the following components was prepared: • 70 mM HEPES-NaOH (pH 7.5); • sodium orthovanadate (3 μM); • PEG-20000 (50 μg/mL); • DTT (1.2 mM); • MgCl2 (3 mM); • MnCl2 (3 mM); • purified human CDK7/CycH/MAT1 (3.3 nM—Lot 02); • RBER-CHKtide substrate (40 μg/mL—Lot 106); • ATP (3 μM); • [γ-33P]-ATP (approx. 8×10^5 cpm per well); and • test compound at the appropriate concentration such that the final concentration of DMSO was […].
as §3
The residual activities for each concentration and the compound IC50 values were calculated using Quattro Workflow V3.1.1 (Quattro Research GmbH, Munich, Germany). The fitting model for the IC50 determinations was “Sigmoidal response (variable slope)” with parameters “top” fixed at 100% and “bottom” at 0%. The fitting method used was a least-squares fit.

[1] = A673, read-out: Cellular Potency IC50 (nM) (in A673 cells)
[2] = A673 cells, 72 hours, read-out: A673 IC50
[3] = ATP 0.3 μM, read-out: CDK12 IC50
[4] = read-out: CKD12 Biochemical Potency IC50

Structure (SMILES)	IC50 (Human CDK12 wt/CycK; [3]) [nM]	CDK7/CDK12 (Human CDK12 wt/CycK)	IC50 (Human CDK12 wt/CycK; [4]) [nM]	IC50 (Human CDK7/CycH/MAT1) [nM]	Ratio of Biochemical Potency:Cellular Potency (A673 cells)	IC50 (A673 cells; [1]) [nM]	IC50 (A673 cells; [2]) [nM]
O=C1C[C@H](Nc2cc(NCc3ccc(-c4ccccn4)cc3)n3ncc(C4CC4)c3n2)CN1 [PPA-075]	145	32.6	145	4720	25.44	5.7	5.7
c1ccc(-c2ccc(CNc3cc(N4CC5(CNC5)C4)nc4c(C5CC5)cnn34)cc2)nc1 [PPA-084]	1120	12.5	1120	14000	15.28	73.3	73.3
c1ccc(-c2ccc(CNc3cc(O[C@@H]4CCCNC4)nc4c(C5CC5)cnn34)cc2)nc1 [PPA-061]	97	13.0	97	1260	18.30	5.3	5.3
OC1CCN(c2cc(NCc3ccc(-c4ccccn4)cc3)n3ncc(C4CC4)c3n2)CC1 [PPA-050]	423	24.8	423	10500	9.44	44.8	44.8
Cn1cc(-c2ccccn2)nc1CNc1cc(NC[C@H]2CCNC[C@@H]2O)nc2c(C3CC3)cnn12 [PPA-024]	6	2.8	6	17	0.06	96.4	96.4
CC1(CNc2cc(NCc3ccc(-c4ccccn4)cc3)n3ncc(C4CC4)c3n2)CCNCC1 [PPA-063]						5.9	5.9
OC1CN(c2cc(NCc3ccc(-c4ccccn4)cc3)n3ncc(C4CC4)c3n2)C1 [PPA-052]	6630	>4.5	6630	> 30000	<66.3	> 100	> 100
F[C@@H]1CNC[C@H]1Oc1cc(NCc2ccc(-c3ccccn3)cc2)n2ncc(C3CC3)c2n1 [PPA-073]	33	16.0	33	529	1.72	19.2	19.2
CC(=O)N1CCC(CNc2cc(NCc3ccc(-c4ccccn4)cc3)n3ncc(C4CC4)c3n2)CC1 [PPA-046]	3780	>8	3780	> 30000	12.38	305	305
c1ccc(-c2ccc(CNc3cc(N[C@@H]4CCCNC4)nc4c(C5CC5)cnn34)cc2)nc1 [PPA-045]	374	25.7	374	9610	11.27	33.2	33.2
c1ccc(-c2ccc(CNc3cc(N4CCOCC4)nc4c(C5CC5)cnn34)cc2)nc1 [PPA-033]	1050	6.3	1050	6650	19.81	53	53
O[C@H]1CNCC[C@@H]1CNc1cc(NCc2c(F)cc(-c3ccccc3)cc2F)n2ncc(C3CC3)c2n1 [PPA-076]	1490	1.5	1490	2250	<14.9	> 100	> 100
O[C@H]1CNCC[C@@H]1CNc1cc(NCc2ccc(-c3ccccc3)cn2)n2ncc(C3CC3)c2n1 [PPA-034]	121	4.4	121	530	10.71	11.3	11.3
CS(=O)(=O)N1CCC(CNc2cc(NCc3ccc(-c4ccccn4)cc3)n3ncc(C4CC4)c3n2)CC1 [PPA-056]						> 100	> 100

Now from value to compound, other results behind:

IC50 (Human CDK12 wt/CycK; [3]) [nM]	CDK7/CDK12 (Human CDK12 wt/CycK)	IC50 (Human CDK12 wt/CycK; [4]) [nM]	IC50 (Human CDK7/CycH/MAT1) [nM]	Structure (SMILES)	Ratio of Biochemical Potency:Cellular Potency (A673 cells)	IC50 (A673 cells; [1]) [nM]	IC50 (A673 cells; [2]) [nM]
32	3.7	32	118	O[C@H]1CNCC[C@@H]1CNc1cc(NCc2ccc(-c3ccccc3)cc2)n2ncc(Cl)c2n1 [PPA-083]	7.11	4.5	4.5
45	3.6	45	164	O[C@H]1CNCC[C@@H]1CNc1cc(NCc2ccc(-c3ccccc3)nc2)n2ncc(C3CC3)c2n1 [PPA-026]	3.57	12.6	12.6
42	7.7	42	323	CCc1cnn2c(NCc3ccc(-c4ccccn4)cc3F)cc(NC[C@H]3CCNC[C@@H]3O)nc12 [PPA-068]	28.00	1.5	1.5
115	2.9	115	337	O[C@H]1CNCC[C@@H]1CNc1cc(NCc2ccc(-n3cccc3)cc2)n2ncc(C3CC3)c2n1 [PPA-017]	63.89	1.8	1.8
74	1.0	74	72	CC(C)c1cnn2c(NCc3ccc(-c4ncccc4F)cc3)cc(NC[C@H]3CCNC[C@@H]3O)nc12 [PPA-014]	11.56	6.4	6.4
69	5.7	69	393	O[C@H]1CNCC[C@@H]1CNc1cc(NCc2ccc(-c3ccccn3)cn2)n2ncc(C3CC3)c2n1 [PPA-021]	9.20	7.5	7.5
1160	2.4	1160	2760	c1ccc(-c2ccc(CNc3cc(NC[C@H]4CNCCO4)nc4c(C5CC5)cnn34)cc2)nc1 [PPA-032]	22.52	51.5	51.5
65	8.6	65	562	O[C@H]1CNCC[C@@H]1CNc1cc(NCc2ccc(-c3ncccn3)cc2F)n2ncc(C3CC3)c2n1 [PPA-067]	25.00	2.6	2.6
72	1.8	72	130	O[C@H]1CNCC[C@@H]1CNc1cc(NCc2cc(F)c(-c3ccccn3)cn2)n2ncc(C3CC3)c2n1 [PPA-022]	48.00	1.5	1.5
44	2.8	44	125	CCc1cnn2c(NCc3ccc(-c4ccccc4)cc3)cc(NC[C@H]3CCNC[C@@H]3O)nc12 [PPA-082]	4.58	9.6	9.6
23	15.2	23	350	O[C@H]1CNCC[C@@H]1CNc1cc(NCc2ccc(-c3ccccn3)cc2F)n2ncc(Cl)c2n1 [PPA-074]	32.86	0.7	0.7

Reference: patent US20240383900A1, “SUBSTITUTED PYRAZOLO [1,5-A]PYRIMIDINE-7-AMINE COMPOUNDS AS CDK INHIBITORS AND THEIR THERAPEUTIC USE” (Carrick Therapeutics Limited, priority 2021, published 2024)
